{"source": "paper PMC9918900", "about": "“New Succinimide–Thiazolidinedione Hybrids as Multitarget Antidiabetic Agents: Design, Synthesis, Bioevaluation, and Molecular Modelling Studies” (Molecules, 2023)", "key": {"human DPP-4 enzyme": {"target": "T1, human DPP-4 enzyme (Homo sapiens, UniProt P27487)", "T1 construct": "purchased", "T1 sequence (P27487 whole entry)": "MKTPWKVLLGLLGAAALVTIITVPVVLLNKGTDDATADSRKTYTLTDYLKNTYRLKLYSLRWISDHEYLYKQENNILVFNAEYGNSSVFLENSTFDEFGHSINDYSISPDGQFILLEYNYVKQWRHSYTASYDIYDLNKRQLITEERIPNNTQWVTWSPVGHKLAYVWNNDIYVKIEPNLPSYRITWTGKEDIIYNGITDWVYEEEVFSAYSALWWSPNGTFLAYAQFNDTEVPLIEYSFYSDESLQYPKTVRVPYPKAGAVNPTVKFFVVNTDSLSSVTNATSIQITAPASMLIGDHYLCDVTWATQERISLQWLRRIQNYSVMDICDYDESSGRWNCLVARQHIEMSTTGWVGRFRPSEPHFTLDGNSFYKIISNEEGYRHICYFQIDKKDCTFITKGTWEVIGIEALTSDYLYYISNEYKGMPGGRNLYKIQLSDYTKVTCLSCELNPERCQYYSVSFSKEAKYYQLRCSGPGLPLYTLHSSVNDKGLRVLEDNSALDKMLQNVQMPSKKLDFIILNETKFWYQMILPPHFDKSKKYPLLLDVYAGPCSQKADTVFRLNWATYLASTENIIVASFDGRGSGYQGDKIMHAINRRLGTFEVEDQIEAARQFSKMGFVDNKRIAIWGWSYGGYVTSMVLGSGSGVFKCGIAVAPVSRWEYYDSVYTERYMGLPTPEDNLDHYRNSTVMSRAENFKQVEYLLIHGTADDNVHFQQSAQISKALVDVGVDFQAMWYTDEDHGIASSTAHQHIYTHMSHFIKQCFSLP", "assay": "DPP-4 activity bioassay", "type": "biochemical", "procedure": "All succinimides and thiazolidinedione hybrids were tested for DPP-4 inhibitory effects on a human DPP-4 enzyme using the methodology published before. The DPP-4 kit was used to measure the inhibition. L-thiazolidine (P32/98) was included as a reference. The hybrids and DPP-4 enzyme were both adulterated 1/50 in the assay buffer (PH = 7.4, 25 mM Tris). Following that, a microplate well was filled with 5 μL of assay buffer, 3 μL of enzyme solution, and 2 μL of adequately diluted test chemical solutions. After a 12-min incubation period at 37.5 °C, a diluted substrate solution of 25 μL was added into the solution. A multi-mode reader was used to assess the fluorescence. […] PRISM5 was used to calculate the IC50 values and compare the inhibition ratio to the control without the inhibitor."}, "[1]": {"test_system": "streptozotocin-induced diabetic rats", "assay": "in vivo antidiabetic activity, fasting plasma glucose level", "design": "species or system Wistar rats", "conditions": "STZ-induced diabetic rats, 28th day", "procedure": "(§1) The antidiabetic activity of the synthesized compound 10d was evaluated using a streptozotocin-induced diabetic rats model.\n(§2) Male Wistar rats weighing 150 to 230 gm were used for the study which were housed in polyacrylic cages (no more than six animals per cage) with dimensions of 38 × 23 × 10 cm and maintained under standard laboratory conditions with a dark/light cycle of 14 h of dark and 10 h of light at a temperature of 25 °C. The animals were provided with a standard diet (dry pellet) and water ad libitum. Before the start of the experimental procedures, the rats were acclimatized to laboratory conditions for 10 days. All the experiments were approved and performed as per the guidelines of the Departmental Research Ethics Committee under letter No. DREC/050 [49].\n(§3) Non-insulin-dependent diabetes mellitus was induced in fasted rats weighing 150–230 gm using a single dose of streptozotocin (STZ) at a dose of 60 mg/kg intraperitoneally after 15 min of the administration of nicotinamide at a 120 mg/kg dose i.p. Nicotinamide was prepared in normal saline while in citrate buffer (pH 4.5), STZ was prepared. After the induction of diabetes, the increase in the plasma glucose level was measured at 72 h and then measured on the 7th day to confirm hyperglycemia. For the diagnosis of diabetes, the threshold value of the fasting plasma glucose level was considered to be more than 126 mg/dl. For the study, only the animals with permanent NIIDM were utilized.\nThe animals were classified into 5 groups with 6 animals in each group (n = 6). […] The fasting glucose concentration was measured on the 0, 7th, 14th, and 28th day of the administration of the extract. During the experimental tenure, the weights of the rats were determined daily and the mean change was recorded."}, "α-amylase": {"target": "T2, α-amylase (Homo sapiens, UniProt P04746)", "T2 sequence (P04746 16-511)": "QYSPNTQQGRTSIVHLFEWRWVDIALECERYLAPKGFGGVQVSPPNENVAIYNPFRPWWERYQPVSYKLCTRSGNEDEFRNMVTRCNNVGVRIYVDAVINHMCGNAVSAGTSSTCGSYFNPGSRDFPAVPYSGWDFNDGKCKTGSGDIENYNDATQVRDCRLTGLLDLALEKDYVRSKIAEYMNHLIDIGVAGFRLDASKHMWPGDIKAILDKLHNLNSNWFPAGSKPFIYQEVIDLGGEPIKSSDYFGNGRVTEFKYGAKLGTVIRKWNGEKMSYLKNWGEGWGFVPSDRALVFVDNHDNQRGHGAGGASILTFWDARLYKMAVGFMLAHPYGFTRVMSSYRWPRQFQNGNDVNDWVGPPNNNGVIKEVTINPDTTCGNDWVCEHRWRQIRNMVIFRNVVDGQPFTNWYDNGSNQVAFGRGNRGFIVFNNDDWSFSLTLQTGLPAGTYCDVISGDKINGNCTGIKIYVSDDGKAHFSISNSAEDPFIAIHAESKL", "assay": "in vitro α-amylase inhibitory activity", "type": "biochemical", "procedure": "The test samples were added in alpha-amylase solution. The enzyme solution was prepared with enzyme and buffer solution. The mixture of the samples and enzyme was then incubated. Then, starch and dinitrosalicylic acid solution was added. The same was performed for both test compounds and the standard drug. […] The percent alpha-amylase inhibition activity and its IC50 values were calculated and confirmed as per the previous procedure."}, "α-glucosidase": {"target": "α-glucosidase", "assay": "in vitro α-glucosidase inhibitory activity", "type": "biochemical, Homo sapiens", "procedure": "The inhibitory analyses for α-glucosidase were carried out in accordance with the protocols reported in the literature; the inhibitory activities of the synthesized hybrids were calculated utilizing screening assay tools."}, "[2]": {"test_system": "streptozotocin-induced diabetic rats", "assay": "effect on serum lipid profile of diabetic animals", "type": "in vivo, Wistar rats", "conditions": "compared to diabetic control group", "procedure": "as §1, §2, §3\nThe animals were classified into 5 groups with 6 animals in each group (n = 6). Group I comprised of normal control rats which were daily administered drinking water only; group II served as diabetic control rats (disease group); group III served as the positive control and were administered 0.5 mg/kg of the standard drug glibenclamide; and group IV and V served as the test group rats and were administered the test compound 10d at 10 mg/kg and 20 mg/kg, respectively, for twenty-eight days. The fasting glucose concentration was measured on the 0, 7th, 14th, and 28th day of the administration of the extract. During the experimental tenure, the weights of the rats were determined daily and the mean change was recorded.\nThe animals were euthanized (sacrificed) via cervical dislocation on the 28th day to observe the biochemical parameters. The parameters studied were triglyceride (TGL), cholesterol, low-density lipoprotein, and high-density lipoprotein (LDL and HDL). The Minias Globe Diagnostic kits were used for cholesterol and TGL. Semi-autoanalyzers were used for the analysis. The serum samples from the rats were also checked for alanine aminotransferase (ALT), aspartate aminotransferase (AST), lactate dehydrogenase (LDH), serum alkaline phosphatase (ALP), and creatinine and urea levels utilizing commercially available kits of Crest Biosystems. The statistical analysis was also performed as per the previous procedure."}}}
{"smiles": "CC(C)(C=C1SC(=O)N(C(=O)CN2CCOCC2)C1=O)C1CC(=O)N(Cc2ccccc2)C1=O", "note": "(stereo not drawn) [10d]", "values": [{"measurement": "inhibition at 31.25 µM", "setting": "human DPP-4 enzyme; 31.25 µM, read-out: DPP4 (inhibition) (converted)", "result": 71.4, "unit": "%"}, {"measurement": "inhibition at 62.5 µM", "setting": "human DPP-4 enzyme; 62.5 µM, read-out: DPP4 (inhibition) (converted)", "result": 76.5, "unit": "%"}, {"measurement": "inhibition at 125 µM", "setting": "human DPP-4 enzyme; 125 µM, read-out: DPP4 (inhibition) (converted)", "result": 81.4, "unit": "%"}, {"measurement": "inhibition at 250 µM", "setting": "human DPP-4 enzyme; 250 µM, read-out: DPP4 (inhibition) (converted)", "result": 85.3, "unit": "%"}, {"measurement": "inhibition at 500 µM", "setting": "human DPP-4 enzyme; 500 µM, read-out: DPP4 (inhibition)", "result": "91.4 ± 1.49", "unit": "%"}, {"measurement": "IC50", "setting": "human DPP-4 enzyme; read-out: IC50 DPP4", "result": 4.22, "unit": "µM"}, {"measurement": "blood glucose level", "setting": "[1]; 10 mg/kg", "result": 93.15, "unit": "mg/dL"}, {"measurement": "blood glucose level", "setting": "[1]; 20 mg/kg", "result": 70.60, "unit": "mg/dL"}, {"measurement": "IC50", "setting": "α-amylase", "result": 12, "unit": "µM"}, {"measurement": "inhibition at 31.25 µM", "setting": "α-amylase; 31.25 µM, read-out: % α-Amylase Inhibition (converted)", "result": 68.6, "unit": "%"}, {"measurement": "inhibition at 62.5 µM", "setting": "α-amylase; 62.5 µM, read-out: % α-Amylase Inhibition (converted)", "result": 70, "unit": "%"}, {"measurement": "inhibition at 125 µM", "setting": "α-amylase; 125 µM, read-out: % α-Amylase Inhibition (converted)", "result": 72.7, "unit": "%"}, {"measurement": "inhibition at 250 µM", "setting": "α-amylase; 250 µM, read-out: % α-Amylase Inhibition (converted)", "result": 76.3, "unit": "%"}, {"measurement": "inhibition at 500 µM", "setting": "α-amylase; 500 µM, read-out: % α-Amylase Inhibition", "result": "82.3 ± 1.2", "unit": "%"}, {"measurement": "IC50", "setting": "α-glucosidase", "result": 10, "unit": "µM"}, {"measurement": "% α-Glucosidase Inhibition", "setting": "α-glucosidase; 31.25 µM", "result": "67.10 ± 0.95", "unit": "%"}, {"measurement": "% α-Glucosidase Inhibition", "setting": "α-glucosidase; 62.5 µM", "result": "72.26 ± 0.77", "unit": "%"}, {"measurement": "% α-Glucosidase Inhibition", "setting": "α-glucosidase; 125 µM", "result": "77.93 ± 0.90", "unit": "%"}, {"measurement": "% α-Glucosidase Inhibition", "setting": "α-glucosidase; 250 µM", "result": "83.83 ± 0.66", "unit": "%"}, {"measurement": "% α-Glucosidase Inhibition", "setting": "α-glucosidase; 500 µM", "result": "88.43 ± 1.26", "unit": "%"}, {"measurement": "HDL level", "setting": "[2]", "result": "greater than before"}, {"measurement": "LDL in serum", "setting": "[2]", "result": "significant decline"}, {"measurement": "total cholesterol level in serum", "setting": "[2]", "result": "significant decline"}, {"measurement": "triglyceride in serum", "setting": "[2]", "result": "significant decline"}]}
